We go through 71 compounds from ChEMBL document CHEMBL3507680, “University of Dundee, Gates Library screen for HepG2 cell viability”.

The data set is described as follows: Human HepG2 cell viability assay in 384 well format. Format: toxicity, cell-based. More on the design: dose 125 nL, time 70.5 hour; concentration not given beside the values. The following applies: HepG2 cells, read-out: Inhibition.
Take `CCn1c(SCC(N)=O)nnc1-c1csc2c1CCCC2`: the cytotoxicity at 70.5 h was 2.39%.

Consider `CCS(=O)(=O)Nc1ccn(Cc2c(F)cccc2Cl)n1`, for which the cytotoxicity at 70.5 h is -9.46%.

With `O=S(=O)(c1ccc(F)c(F)c1)n1cc(Cl)cn1`, the cytotoxicity at 70.5 h is -6.91%.

For the compound `Cc1sc(NC(=O)CCC(=O)O)c(C(N)=O)c1-c1ccc(Cl)cc1Cl`, the cytotoxicity at 70.5 h is -1.16%.

On to `CCCNC(=O)NC(C)c1ccccn1` (stereo unspecified), for which the cytotoxicity at 70.5 h was -11.1%.

Take `CS(=O)(=O)Nc1ccn(Cc2ccc(Br)cc2)n1`: the cytotoxicity at 70.5 h was -8.91%.

`CCCN1CCC(NC(=O)c2csc(C)c2-c2ccc(C)cc2)CC1`: the cytotoxicity at 70.5 h was -0.127%.

As for `Cc1cccc(-n2nnnc2C2(NCc3ccco3)CCCCC2)c1`, the cytotoxicity at 70.5 h was -3.38%.

With `Cc1nc(N2CCCC2)ncc1-c1cc(O)nc(N2CCOCC2)n1`, the cytotoxicity at 70.5 h is -4.64%.

For the compound `COc1cc2cc(C(=O)NCC(=O)O)n(C)c2c(OC)c1OC`, the cytotoxicity at 70.5 h was found to be 31.9%.

In the case of `CC(=O)N1CCN([C@@H]2CN(C(=O)c3ccccc3)C[C@H]2O)CC1`, the cytotoxicity at 70.5 h is -5.08%.

Take `CC(=O)N1CCN([C@@H]2CN(C(=O)c3ccccc3C)C[C@H]2O)CC1`: the cytotoxicity at 70.5 h was -3.99%.

Take `Cc1ccc(Nc2nccc(C3CCN(C(=O)CO)C3)n2)nc1` (stereo unspecified): the cytotoxicity at 70.5 h was -11.2%.

Regarding `CNc1cc(C2CCCN(C(=O)c3ccc(=O)[nH]n3)C2)ccn1` (stereo unspecified), the cytotoxicity at 70.5 h is -0.0309%.

On to `CC(=O)N1CCC(Cc2cnc(-c3c(C)nn(C)c3C)cn2)CC1`, for which the cytotoxicity at 70.5 h was -0.949%.

On to `CN(C)S(=O)(=O)N1CCC(C)(c2ncc(C(N)=O)s2)CC1`, for which the cytotoxicity at 70.5 h was -5.66%.

As for `c1ccc(CCN2CCCC2c2ccnc(Nc3cnccn3)n2)cc1` (stereo unspecified), the cytotoxicity at 70.5 h was -3.41%.

Consider `Cc1cc(O)nc(C2CCCN(CCO)C2)n1` (stereo unspecified), for which the cytotoxicity at 70.5 h was -1.84%.

For the compound `c1cc(-c2cnc(C3CCNCC3)cn2)n[nH]1`, the cytotoxicity at 70.5 h was 12.8%.

On to `Cc1cc(C)nc(N2CCOC(C)(C(=O)N(C)C)C2)n1` (stereo unspecified), for which the cytotoxicity at 70.5 h was -4.59%.

As to `Cc1c(CN2CCCC2(C)C(=O)N2CCOCC2)cnn1C` (stereo unspecified), the cytotoxicity at 70.5 h was -7.03%.

On to `Cc1nccc(C2CN(C(=O)c3cncnc3)C2)n1`, for which the cytotoxicity at 70.5 h was -13.8%.

Consider `Cc1cnc(N2CCOC(C(=O)NCc3ccccc3)C2)s1` (stereo unspecified), for which the cytotoxicity at 70.5 h was -15.2%.

Consider `CCn1ccc2ccnc(CC3CN(C(=O)c4cnco4)C3)c21`, for which the cytotoxicity at 70.5 h was -6.85%.

Take `COCC(=O)NC[C@H]1CC[C@H](c2nnc(-c3cccnc3)o2)CC1`: the cytotoxicity at 70.5 h is -7.6%.

Turning to `Cc1ccc(C2CN(Cc3cccc4[nH]ccc34)CCO2)nc1` (stereo unspecified), the cytotoxicity at 70.5 h came out at 46%.

Turning to `Cc1ccn(CCNC(=O)C2CCN(S(=O)(=O)c3ccc(F)cc3)C2)n1` (stereo unspecified), the cytotoxicity at 70.5 h amounted to 8.09%.

For `CC1(C(=O)NC2CCCC2)CCCN(c2ncccn2)C1` (stereo unspecified), the cytotoxicity at 70.5 h stood at 6.47%.

On to `CNc1nc(C2CCN(C(=O)CC3CCCC3)C2)nc2c1CN(C)CC2` (stereo unspecified), for which the cytotoxicity at 70.5 h is 8.17%.

For `CCN1CCCC(O)(c2nc(C)c(CCOc3ccccc3Cl)s2)CC1` (stereo unspecified), the cytotoxicity at 70.5 h is -7.73%.

Turning to `CC(=O)N1CCc2nnc(C3CCCCN3CC3CC3)n2CC1` (stereo unspecified), the cytotoxicity at 70.5 h was -13%.

For `Cc1noc(C)c1-c1ccnc(C2CCN(S(=O)(=O)N(C)C)CC2)c1`, the cytotoxicity at 70.5 h is -2.76%.

With `CC(=O)N1CCn2c(nnc2C2CCCCN2Cc2ccccc2Cl)C1` (stereo unspecified), the cytotoxicity at 70.5 h was -3.34%.

As for `COCc1ccc(C(=O)N2CCC(c3cc4nccnc4[nH]3)CC2)cc1`, the cytotoxicity at 70.5 h was -14.3%.

`Cc1ccnc(C2CCN(C(=O)CCn3ncc4ccccc43)C2)n1` (stereo unspecified): the cytotoxicity at 70.5 h is -8.45%.

As to `Cc1cc(C(=O)NCCc2c(C)nn(C)c2C)nc(N2CCCCC2)n1`, the cytotoxicity at 70.5 h was 20.6%.

Turning to `CCOC(=O)c1n[nH]cc1-c1cncn1CCn1nc(C)c(Cl)c1C`, the cytotoxicity at 70.5 h was -5.26%.

Turning to `CNC(=O)c1cn[nH]c1C1CCN(Cc2cn(C)nc2C)C1` (stereo unspecified), the cytotoxicity at 70.5 h was -12.4%.

As to `CN1CCOC(C)(C(=O)N2CCN(C3CCCC3)CC2)C1` (stereo unspecified), the cytotoxicity at 70.5 h was -11.9%.

On to `CS(=O)(=O)c1cn[nH]c1C1CCCN(C(=O)Cn2cccn2)C1` (stereo unspecified), for which the cytotoxicity at 70.5 h is -9.34%.

Take `CN(C)c1cc(C2CCCN(S(=O)(=O)C3CCCC3)C2)ccn1` (stereo unspecified): the cytotoxicity at 70.5 h was -7.46%.

Turning to `O=C(Cn1cc(Cl)cn1)N1CCCC(c2ccn[nH]2)C1` (stereo unspecified), the cytotoxicity at 70.5 h was -7.33%.

`Cn1cncc1CN1CCCC1c1cncc(Oc2ccc(Cl)cc2)n1` (stereo unspecified): the cytotoxicity at 70.5 h came out at 8.74%.

With `Cc1nccn1CCC1CCN(C(C)C)CC1`, the cytotoxicity at 70.5 h was -2.75%.

`O=C(c1cc[nH]n1)N1CCC(c2cc(Nc3ccccn3)n[nH]2)CC1`: the cytotoxicity at 70.5 h was -8.04%.

On to `CCc1nccn1-c1cccc(C2CCN(C(=O)COC)CC2)n1`, for which the cytotoxicity at 70.5 h was 0.0936%.

As to `CNC(=O)C1(C)CCCN(c2cnccn2)C1` (stereo unspecified), the cytotoxicity at 70.5 h was -8.04%.

For `CCn1cc(CN2CCN(CC(O)c3ccc(C)cc3C)CC2)cn1` (stereo unspecified), the cytotoxicity at 70.5 h was -4.8%.

Consider `O=C1NC[C@]2(CC[C@@H](C(=O)N3CCCC(O)C3)CC2)Oc2ccccc21` (stereo partly specified), for which the cytotoxicity at 70.5 h was -7.1%.

For `O=C(CCn1c(C(F)(F)F)cc2cccnc21)NC1CCCC1`, the cytotoxicity at 70.5 h is -3.77%.

For `O=C(c1nsc(Cl)c1Cl)N1CCc2nc3sccc3c(=O)n2CC1`, the cytotoxicity at 70.5 h is -3.17%.

As for `Cn1cc(Cl)c(C(=O)N2CCc3nc4sccc4c(=O)n3CC2)n1`, the cytotoxicity at 70.5 h was -2.51%.

For the compound `CCC(CN1CCCC1)NC(=O)Cc1c(C)[nH]c2cc(C)cc(C)c12` (stereo unspecified), the cytotoxicity at 70.5 h was -4.71%.

With `CCC(CN1CCOCC1)NC(=O)Cc1c(C)[nH]c2cc(C)cc(C)c12` (stereo unspecified), the cytotoxicity at 70.5 h is 0.203%.

In the case of `O=C(Cn1cc(Cl)cn1)N1CCCC(c2cc3ccccc3cn2)C1` (stereo unspecified), the cytotoxicity at 70.5 h was found to be 23.4%.

As for `COCC(=O)N1CCC(c2cc3ncccc3c(O)n2)CC1`, the cytotoxicity at 70.5 h was -7.25%.

As for `O=C(NCCO)C1(Cc2ccccc2-c2ccncc2)CCOCC1`, the cytotoxicity at 70.5 h was -7.35%.

For the compound `O=C(CCC1CCCC1)N1CCC(c2cc3ncccc3c(O)n2)CC1`, the cytotoxicity at 70.5 h came to 0.616%.

For `CCc1nnsc1C(=O)NCCCC(CC)(CC)C1OCCO1`, the cytotoxicity at 70.5 h is -15.8%.

Regarding `CC(C)(C)CC(=O)N1CCc2sccc2C1`, the cytotoxicity at 70.5 h is -7.51%.

Take `CC1(C)COCCN1C(=O)CCc1nc(-c2ccc(Cl)cc2)no1`: the cytotoxicity at 70.5 h is -20%.

Regarding `NC(=O)C(NC(=O)c1ccc(NC2CC2)nc1)c1ccccc1` (stereo unspecified), the cytotoxicity at 70.5 h was -5.49%.

For `CCCc1c(C(=O)N2CCN(c3ncccn3)CC2)cnn1C`, the cytotoxicity at 70.5 h is -10.6%.

As for `Cc1cc(O)nc(C2CCCNC2)n1` (stereo unspecified), the cytotoxicity at 70.5 h was -3.99%.

As to `COc1ccc(-c2cc(C3CCNCC3)ccn2)cc1`, the cytotoxicity at 70.5 h is -4.77%.

For the compound `O=C(C1CCC1)N1C[C@@H](c2ccsc2)[C@@H]2CN(C3CCCCC3)CC[C@@H]21`, the cytotoxicity at 70.5 h was found to be 14.8%.

On to `CC(=O)N1CCC[C@@H](NCc2cccc(F)c2)[C@@H]1c1ccc(C)s1`, for which the cytotoxicity at 70.5 h is -6.03%.

As to `CC(=O)N1CCC[C@@H](NCc2c[nH]c3ccccc23)[C@@H]1c1ccc(C)s1`, the cytotoxicity at 70.5 h is -8.53%.

Consider `CC1Cc2cc(-c3cncn3CC(=O)NC(C)(C)C)ccc2N1C` (stereo unspecified), for which the cytotoxicity at 70.5 h is -7.08%.

Regarding `CCOC(=O)c1n[nH]cc1-c1cncn1CCCn1nc(C)cc1C`, the cytotoxicity at 70.5 h was -5.33%.

On to `c1ccc(CCNc2cccc(C3CCCNC3)n2)cc1` (stereo unspecified), for which the cytotoxicity at 70.5 h is 6.58%.
